One series relates to HFF cells. Kind of series: MTT assay for cell cytotoxicity. Particulars: stationary cells. It is filed as cell-based, human. How it is done: Twenty-four hours prior to assay, HFF cells are plated into 96 well plates at a concentration of […] cells per well. After 24 h, the media is aspirated and […] of drug is added to the first row of wells and then diluted serially 1:5 using the automated Cetus Liquid Handling System in a manner similar to that used in the CPE assay. The plates are then incubated in a CO2 incubator at 37° C. for seven days. At this time, each well receives 50 microliters of […] solution of MTT in Dulbecco's Phosphate Buffered Saline. The plates are then incubated for an additional four hours. At this time, the media is removed and replaced with 100 μl of 0.04N hydrochloric acid in isopropanol. After shaking briefly, the plates are then read on a plate reader at 550 nm.

For series [1], the system named is RE strain HSV-1. Kind of series: Topical efficacy in RE strain HSV-1-induced stromal keratitis in the rabbit. Format: in vivo, NZW rabbit. Particulars: for efficacy ranking, average stromal disease scores: Example 4, FIG. 2. The method, then:
The following examples describe topical ocular evaluation of the inventive compounds during RE strain HSV-1-induced stromal keratitis in the rabbit. These evaluations included analysis of the topical efficacy of both the inventive compounds alone, or, in certain instances, in combination with trifluorothymidine (TFT). The evaluation was carried out by the combined analysis of both clinical and virological (HSV-1 recovery) parameters. The specified number of NZW rabbits (1.5-2.0 kg) were used. Animals were received at least two days prior to inoculation to allow them to accommodate to the conditions in the vivarium facility. This conditioning of the animals prior to inoculation minimizes animal variability. After the accommodation, the animals received a slit-lamp examination to exclude any animals with pre-existing anterior segment ocular defects. Animals were bi-laterally inoculated by intrastromal injection of 10^5 PFU RE strain HSV-1. The animals were then replaced individually into cages. On day number three post-inoculation (PI), the animals were evaluated by slit-lamp microscopy. Corneal stromal, iris and conjunctival disease were graded on an increasing scale of severity from 0+ to 4+. After evaluation, the animals were divided into a specified number of groups each containing an equal number of animals based on a matched corneal stromal involvement. Topical therapy was initiated immediately after animal groupings. All animals received daily slit-lamp evaluations from day 3 through 7 PI. The ocular HSV-1 induced disease severity was recorded daily. […] Differences in disease resolution and development of stromal alterations are statistically analyzed. Virus recovery during and after topical therapy was compared. The topical efficacy of Compounds 23 and 96 on stromal HSV-1 infection in the rabbit model of stromal keratitis was evaluated. All animals received daily slit lamp evaluations from day 3 through day 7 and on days 9 and 10 PI. The ocular HSV-1-induced disease severity was recorded daily. The topical efficacy of Compounds 23, 96 and 82 on stromal HSV-1 infection in the rabbit model of stromal keratitis was evaluated. All animals received daily slit lamp evaluations for day 3 through day 7 PI. The ocular HSV-1-induced disease severity was recorded daily. The topical efficacy of Compounds 23 and 96 in combination with TFT on stromal HSV-1 infection in the rabbit model of stromal keratitis was evaluated. Groups 1, 2 and 3 each have 5 animals for a total of 10 eyes per combination therapy. This allowed minimization of individual animal variability and performance of a statistical analysis on the results of the combination therapies. Groups 3, 4 and 5 have 2 animals each. These single-agent therapies were used to verify previously reported data on the efficacy of these compounds. The compounds are used at a lower frequency of delivery to match the dosing regimen of the combination-agent group. Consequently, the study also provides comparative information on Compounds 23 and 96 as a lower frequency of topical administration (4 times per day vs. 9 times per day in previous studies).

Series [2] has as its system RE strain HSV-1. Kind of series: HSV-1 recovery from tear film, cornea and trigeminal ganglia of treated rabbits. It is filed as in vivo, NZW rabbit. Particulars: for recovery of HSV-1 in tear film: Example 4. From the text: The specified number of NZW rabbits (1.5-2.0 kg) were used. Animals were received at least two days prior to inoculation to allow them to accommodate to the conditions in the vivarium facility. This conditioning of the animals prior to inoculation minimizes animal variability. After the accommodation, the animals received a slit-lamp examination to exclude any animals with pre-existing anterior segment ocular defects. Animals were bi-laterally inoculated by intrastromal injection of 10^5 PFU RE strain HSV-1. The animals were then replaced individually into cages.
[…] This was carried out by obtaining tear film by swabbing the lower and upper conjunctival sacs and retaining the swab in the nasal fornix for 10 seconds. The swabs were eluted individually in HBSS. 50 μl aliquots of the virus-HBSS eluate were absorbed under confluent HFF cell monolayers for 5 minutes. The monolayers were hydrated with MEM, incubated at 37° C. and observed daily for 1 to 2 weeks to detect developing cytopathology consistent with HSV infection (HSV CPE).
On day 10 PI, the animals were sacrificed, the corneal epithelium was scraped from the eyes and epithelial and corneal stromal cultures were preformed on HFF cell monolayers. The separation of epithelial virus from deeper stromal virus infection allows for analysis of HSV in these distinct corneal layers. Corneal epithelial and stromal co-cultures were evaluated daily by inverted light microscopy.
At sacrifice, trigeminal ganglia were removed, washed in HBSS, minced and floated over duplicate HFF cell monolayers. The cell co-cultures were monitored by inverted light microscopy for 2 weeks. Negative cultures were blind passaged twice at 7 day intervals. Detection of HSV CPE in the whole-cell co-cultures was scored either positive or negative. HSV recovery from inventive compound-treated, TFT-treated and placebo-treated trigeminal ganglia was compared and differences in recovery rates analyzed.
On day 7 PI, the animals were sacrificed, the corneal epithelium was scraped from the eyes and epithelial and corneal stromal cultures were performed on HFF cell monolayers. The separation of epithelial virus from deeper stromal virus infection allows for analysis of HSV in these distinct corneal layers. Corneal epithelial and stromal co-cultures were evaluated daily by inverted light microscopy.

In series [3] the test system is human foreskin fibroblast (HFF) cell monolayers. Kind of series: Toxicity effects controls: sham-inoculated compound-treated HFF monolayers. As to Toxicity effects: key: +: toxic; -: no toxicity; ±: mild toxicity; T: toxicity effects interfered with CPE rating. It is filed as cell-based. From the text: With sufficient stirring, all the compounds completely dissolved.
In the tables, the symbols have the meaning indicated: […]

Where [4] appears, read: Experiment 1 (Table 1), 24 h PI, 0.001 mg/ml.
Setting [5] is: Experiment 1 (Table 1), 24 h PI, 0.01 mg/ml.
The mark [6] stands for this setting: Experiment 1 (Table 1), 24 h PI, 0.1 mg/ml.
Setting [7] is: Experiment 1 (Table 1), 24 h PI, 1 mg/ml.
Where [8] appears, read: Experiment 1 (Table 1), 48 h PI, 0.001 mg/ml.
Where [9] appears, read: Experiment 1 (Table 1), 48 h PI, 0.01 mg/ml.
Where [10] appears, read: Experiment 1 (Table 1), 48 h PI, 0.1 mg/ml.
Setting [11] is: Experiment 6 (Table 15), 48 h, 0.001 mg/ml.
Setting [12] is: Experiment 6 (Table 15), 48 h, 0.01 mg/ml.

In the case of `CC1=CC(C)=[N+]2CC[N+]3=C(C)C=C(C)[O][Co-3]23([NH3+])([NH3+])[O]1.[Cl-]` [Compound 23, reference compound], the “toxicity IC50, MTT toxicity” value in the series with HFF cells was over 61 MCG/ML. Moreover, the “efficacy ranking during stromal HSV-1 infection” value in the series on RE strain HSV-1 [1] (Example 3, all eyes, FIG. 1, 1 mg/ml (TFT 0.1%), 9x/day, 5 days) is “Compound 96>>Compound 23>TFT>Placebo”. In addition, the “efficacy vs TFT therapy” value in the series with RE strain HSV-1 [1] (Example 3, days 7, 9 and 10 PI) is reported as “superior to TFT therapy”. In addition, in the series with RE strain HSV-1 [1], the “efficacy ranking, average stromal disease scores” value is “Compound 96>Compound 82>Compound 23>TFT=Placebo”. For the same compound, in the series with RE strain HSV-1 [1] (Example 5, FIG. 5, initial stromal disease <0.5 on day 3 PI), the “effect on stromal disease severity/progression” value is listed as “slowed the progression of stromal disease”. Further, in the series on RE strain HSV-1 [2] (Example 3), the “HSV-1 recovery from corneal epithelial cultures vs other therapy groups” value is listed as “significantly reduced”. Further, the “HSV-1 recovery, corneal epithelium (C.E.)” value in the series with RE strain HSV-1 [2] (Example 3 (Table 22)) was determined as 20%. Further, in the series with RE strain HSV-1 [2] (Example 3 (Table 22)), the “HSV-1 recovery, corneal stroma (C.S.)” value is listed as 50%. In addition, the “HSV-1 recovery, trigeminal ganglia (T.G.)” value in the series with RE strain HSV-1 [2] (Example 3 (Table 22)) came to 50%. In addition, the “HSV-1 recovery, tear film (positive samples of total)” value in the series with RE strain HSV-1 [2] (Example 3 (Table 22), day 3 PI) was 100%; with RE strain HSV-1 [2] (Example 3 (Table 22), day 5 PI) it was 100%; in the series with RE strain HSV-1 [2] (Example 3 (Table 22), day 7 PI), 80%; in the series with RE strain HSV-1 [2] (Example 3 (Table 22), day 9 PI), 0%. Besides, the “recovery of HSV-1 in tear film” value in the series on RE strain HSV-1 [2] is “reduced the recovery of HSV-1 in tear film”. Besides, in the series on RE strain HSV-1 [2] (Example 5 (Table 23)), the “HSV-1 recovery, corneal stroma” value was determined as 80%. Moreover, the “HSV-1 recovery (positive cultures per total)” value in the series with RE strain HSV-1 [2] (Example 5 (Table 23), column 1) is listed as 0%; in the series with RE strain HSV-1 [2] (Example 5 (Table 23), column 3), 100%; in the series on RE strain HSV-1 [2] (Example 5 (Table 23), column 5), 90%; in the series on RE strain HSV-1 [2] (Example 5 (Table 23), column 7) it was 80%. Moreover, the toxicity effects result in series [3] (setting [4]), in series [3] (setting [5]), in series [3] (setting [6]), in series [3] (setting [7]), in series [3] (setting [8]) and in series [3] (setting [9]) was “-” in each case. Further, the toxicity effects entry is recorded as “-” in series [3] (setting [10]); “+” in series [3] (Experiment 1 (Table 1), 48 h PI, 10 mg/ml); “-” in series [3] (Experiment 3 (Table 7), 24 h PI, 0.001 mg/ml); “-” in series [3] (Experiment 3 (Table 7), 24 h PI, 0.01 mg/ml); “-” in series [3] (Experiment 3 (Table 7), 24 h PI, 0.1 mg/ml); “-” in series [3] (Experiment 3 (Table 7), 48 h PI, 0.001 mg/ml). For the same compound, the toxicity effects result in series [3] (Experiment 3 (Table 7), 48 h PI, 0.01 mg/ml) is given as “-”; in series [3] (Experiment 3 (Table 7), 48 h PI, 0.1 mg/ml), “-”; in series [3] (setting [11]), “-”; in series [3] (setting [12]), “-”; in series [3] (Experiment 6 (Table 15), 48 h, 0.1 mg/ml), “-”; in series [3] (Experiment 6 (Table 15), 48 h, 0.5 mg/ml) it was “-”. The toxicity effects result in series [3] (Experiment 6 (Table 15), 48 h, 1 mg/ml) was “-”.
Take `CC([O-])=CC(C)=NCCN=C(C)C=C(C)[O-].[Cl-].[Co+3].c1c[nH]cn1.c1c[nH]cn1` [Compound 82]: the “efficacy relative to Compounds 23 and 96” value with RE strain HSV-1 [1] (Example 4) is “intermediate between Compounds 23 and 96”. Besides, in the series on RE strain HSV-1 [1] (Example 4, 1 mg/ml, severity <0.5+ on day 3 PI), the “reduction of stromal disease development” value is on record as “effective in reducing the development of stromal disease”. Further, in the series on RE strain HSV-1 [1], the “efficacy ranking, average stromal disease scores” value is given as “Compound 96>Compound 82>Compound 23>TFT=Placebo”. In the series with RE strain HSV-1 [1] (Example 4, severity >0.75), the “effect on development or progression of stromal disease” value is “did not alter the development or progression of stromal disease”. Further, the “recovery of HSV-1 in tear film” value in the series on RE strain HSV-1 [2] is “reduced the recovery of HSV-1 in tear film”. For the same compound, the toxicity effects result in series [3] (setting [4]) is given as “-”; in series [3] (setting [5]), “-”; in series [3] (setting [6]), “-”; in series [3] (setting [7]), “-”; in series [3] (Experiment 1 (Table 1), 24 h PI, 10 mg/ml), “-”; in series [3] (setting [8]), “-”. Further, the toxicity effects result in series [3] (setting [9]) is reported as “-”; in series [3] (setting [10]), “-”; in series [3] (Experiment 1 (Table 1), 48 h PI, 1 mg/ml) it was “-”. Moreover, the “toxicity compared with 23 and 76” value in series [3] (Experiment 1 comment, less than the observed toxicity of 23 and 76) is “one order of magnitud”.
As to `CC(=NCCN=C(C)C(Cl)=C(C)[O-])C(Cl)=C(C)[O-].[Br-].[Co+3].c1c[nH]cn1.c1c[nH]cn1` [Compound 93], the “toxicity IC50, MTT toxicity” value in the series with HFF cells is 65.0 MCG/ML. For the same compound, the toxicity effects entry was “-” in series [3] (Experiment 4 (Table 10), 24 h, 0.001 mg/ml); “-” in series [3] (Experiment 4 (Table 10), 24 h, 0.01 mg/ml); “-” in series [3] (Experiment 4 (Table 10), 24 h, 0.1 mg/ml); “-” in series [3] (Experiment 4 (Table 10), 24 h, 0.5 mg/ml); “-” in series [3] (Experiment 4 (Table 10), 24 h, 1 mg/ml); “-” in series [3] (Experiment 4 (Table 10), 48 h, 0.001 mg/ml). Also, the toxicity effects entry is on record as “-” in series [3] (Experiment 4 (Table 10), 48 h, 0.01 mg/ml); “-” in series [3] (Experiment 4 (Table 10), 48 h, 0.5 mg/ml); “-” in series [3] (Experiment 4 (Table 10), 48 h, 1 mg/ml); “-” in series [3] (setting [11]); “-” in series [3] (setting [12]). In series [3] (Experiment 6 comment, more pronounced at 0.5 and 0.1 mg/ml, cell rounding, detaching, granularity), the “toxicity to HFF monolayers (comment)” value is on record as “toxicity observed”.

The record behind these values is patent US5756491A, “Antiviral cobalt-organic compounds” (priority 1991, dated 1998).
